EC50 data for 42 compounds are collected here from patent publication US8088806B2 (Achillion Pharmaceuticals, Inc., priority 2005, dated 2012).

Some results are limits rather than exact numbers.

The first assay relates to HCV replicon. Put plainly: Replicon based assay of HCV replication inhibition (NPT ELISA). It counts as cell-based, Hepatitis C virus. As to conditions: Hepatitis C virus, Huh-7, 72 h, Table I; Huh-7 HCV replicon-containing cells, three days; read-out: Activity. Summed up:
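Huh-7 cells carrying a bicistronic HCV replicon (neo, EMCV-IRES-driven NS3–NS5B) treated overnight after seeding with usually 6 concentrations, 10 to 0.03 micromolar, for three days at 37° C without G418. Replication read as NPT level by captured ELISA; matched-DMSO wells and interferon alpha as controls.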
For orientation: Replicon systems follow genome replication, usually without infectious particles.
As to `FC(F)(F)Oc1cccc(CNc2nc(-c3cccnc3)cs2)c1` [compound 76, N-(3-(trifluoromethoxy)benzyl)-4-(pyridin-3-yl)thiazol-2-amine], the EC50 was over 10000 nM.

As to `FC(F)(F)Oc1ccc(Nc2nc(-c3ccc(Cl)cc3)cs2)cc1` [compound 46, 4-(4-chlorophenyl)-N-(4-(trifluoromethoxy)phenyl)thiazol-2-amine], the EC50 was over 10000 nM.

Take `CCCCCOc1ccc(Nc2nc(-c3ccc(CC(=O)O)cc3)c(C)s2)cc1C(F)(F)F` [compound 197, 2-(4-(2-(3-(trifluoromethyl)-4-(pentloxy)phenylamino)-5-methylthiazol-4-yl)phenyl)acetic acid]: the EC50 is under 1000 nM.

For `CCCCCOc1ccc(Nc2nc(CN(C)CC(N)=O)cs2)cc1C(F)(F)F` [compound 218, 2-(N-((2-(3-(trifluoromethyl)-4-(pentyloxy)phenylamino)thiazol-4-yl)methyl)-N-methylamino)acetamide], the EC50 is under 1000 nM.

For `Fc1ccc(-c2csc(Nc3ccc(Cl)c(Cl)c3)n2)c(F)c1` [compound 49, N-(3,4-dichlorophenyl)-4-(2,4-difluorophenyl)thiazol-2-amine], the EC50 was under 1000 nM.

As to `FC(F)(F)c1cc(Nc2nc(-c3ccc(Cl)cc3)cs2)ccc1Cl` [compound 62, N-(4-chloro-3-(trifluoromethyl)phenyl)-4-(4-chlorophenyl)thiazol-2-amine], the EC50 was over 10000 nM.

For `CCCCCOc1ccc(Nc2nc(-c3ccc4c(c3)NC(=O)CO4)cs2)cc1C(F)(F)F` [compound 199, 6-(2-(3-(trifluoromethyl)-4-(pentyloxy)phenylamino)thiazol-4-yl)-2H-benzo[b][1,4]oxazin-3(4H)-one], the EC50 was under 1000 nM.

Take `Cc1sc(Nc2cccc(Oc3ccccc3)c2)nc1-c1ccc(CC(=O)O)cc1` [compound 187, 2-(4-(2-(3-phenoxyphenylamino)-5-methylthiazol-4-yl)phenyl)acetic acid]: the EC50 is under 1000 nM.

On to `CCCCCOc1ccc(Nc2nc(-c3ccc(C#N)cc3)cs2)cc1C(F)(F)F` [compound 132, 4-(2-(3-(trifluoromethyl)-4-(pentyloxy)phenylamino)thiazol-4-yl)benzonitrile], for which the EC50 was under 1000 nM.

Regarding `CCCCCOc1ccc(Nc2nc(-c3ccc(C(=O)O)cc3)cs2)cc1C(F)(F)F` [compound 155, 4-(2-(3-(trifluoromethyl)-4-(pentyloxy)phenylamino)thiazol-4-yl)benzoic acid], the EC50 is under 1000 nM.

Still in this assay, the particulars now being: Hepatitis C virus, Huh-7, 72 h, Table III; Huh-7 HCV replicon-containing cells, three days; read-out: Activity.
`CCCCCCCc1ccc(Nc2nc(-c3ccc(OCC(=O)O)cc3)c(C)s2)cc1` [compound 562, 2-(4-(2-(4-heptylphenylamino)-5-methylthiazol-4-yl)phenoxy)acetic acid]: the EC50 was under 1000 nM.

Consider `CCCCCCCCOc1ccc(Nc2nc(-c3cnc(O)cc3C)cs2)cc1C(F)(F)F` [compound 659, 5-(2-(3-(trifluoromethyl)-4-(octyloxy)phenylamino)thiazol-4-yl)-4-methylpyridin-2-ol], for which the EC50 was under 1000 nM.

As to `CCCCCCCCOc1ccc(Nc2nc(Cc3ccc(F)c(F)c3)cs2)cc1` [compound 608, 4-(3,4-difluorobenzyl)-N-(4-(octyloxy)phenyl)thiazol-2-amine], the EC50 was over 10000 nM.

Take `CCCCCCCCOc1ccc(Nc2nc(Cc3ccc(Cl)cc3)cs2)cc1` [compound 634, 4-(4-chlorobenzyl)-N-(4-(octyioxy)phenyl)thiazol-2-amine]: the EC50 is over 10000 nM.

Consider `CCCCCCCCOc1ccc(Nc2nc(-c3ccc4cc(OC)ccc4c3)cs2)cc1C(F)(F)F` [compound 707, N-(3-(trifluoromethyl)-4-(octyloxy)phenyl)-4-(2-methoxynaphthalen-6-yl)thiazol-2-amine], for which the EC50 is under 1000 nM.

As to `CCCCCCCCOc1ccc(Nc2nc(-c3cccc(OC)n3)cs2)cc1C(F)(F)F` [compound 705, N-(3-(trifluoromethyl)-4-(octyloxy)phenyl)-4-(6-methoxypyridin-2-yl)thiazol-2-amine], the EC50 was under 1000 nM.

As to `Oc1csc(Nc2ccc(OCCCC3CCCC3)c(C(F)(F)F)c2)n1` [compound 652], the EC50 was in the range of 1000 to 10000 nM.

Consider `CCCCCCCCOc1ccc(Nc2nc(-c3ccc(N)nc3)cs2)cc1` [compound 685, 5-(2-(4-(octyloxy)phenylamino)thiazol-4-yl)pyridin-2-amine], for which the EC50 was under 1000 nM.

Take `CCCCCCCCN(C)c1ccc(Nc2nc(O)cs2)cc1C(F)(F)F` [compound 651]: the EC50 lay in the range of 1000 to 10000 nM.

The same assay, now with this note: Hepatitis C virus, replicon based assay of HCV replication inhibition; Table II; read-out: Activity.
With `CCCCCCCOc1ccc(Nc2nc(-c3ccccn3)cs2)cc1` [compound 397, N-(4-(heptyloxy)phenyl)-4-(pyridin-2-yl)thiazol-2-amine], the EC50 was under 1000 nM.

`CCCCCOc1ccc(Nc2nc(-c3cc4cnccc4o3)cs2)cc1C(F)(F)F` [compound 361, 4-(furo[3,2-c]pyridin-2-yl)-N-(4-(pentyloxy)-3-(trifluoromethyl)phenyl)thia-zol-2-amine]: the EC50 was under 1000 nM.

Take `CC(C)COc1ccc(Nc2nc(-c3cccnc3)cs2)cc1C(F)(F)F` [compound 239, N-(4-isobutoxy-3-(trifluoromethyl)phenyl)-4-(pyridin-3-yl)thiazol-2-amine]: the EC50 was under 1000 nM.

As for `CCCCCOc1ccc(Nc2nc(CC)cs2)cc1F` [compound 427, 4-ethyl-N-(3-fluoro-4-(pentyloxy)phenyl)thiazol-2-amine], the EC50 fell in the range of 1000 to 10000 nM.

As for `CCCCCOc1ccc(Nc2nc(CN3CCC(C(C)(C)N)C3)cs2)cc1C(F)(F)F` (stereo not drawn) [compound 304, 4-((3-(2-aminopropan-2-yl)pyrrolidin-1-yl)methyl)-N-(4-(pentyloxy)-3-(trifluoromethyl)phenyl)thia-zol-2-amine], the EC50 lay in the range of 1000 to 10000 nM.

Take `COc1ccc(CNc2nc(-c3ccc(CC(=O)O)cc3)c(C)s2)cc1` [compound 346, 2-(4-(2-(4-methoxybenzylamino)-5-methylthiazol-4-yl)phenyl)acetic acid]: the EC50 was over 10000 nM.

Regarding `CCCCCOc1ccc(Nc2nc(CN3CCOCC3)cs2)cc1F` [compound 285, N-(3-fluoro-4-(pentyloxy)phenyl)-4-(morpholinomethyl)thiazol-2-amine], the EC50 was 1000 to 10000 nM.

For `CC(=O)OCCCCCCN(C)c1ccc(Nc2nc(-c3ccc(C)nc3)cs2)cc1C(F)(F)F` [compound 466], the EC50 was 1000 to 10000 nM.

With `CCCCCCCOc1ccc(Nc2nc(-c3ccccc3O)cs2)cc1` [compound 372, 2-(2-(4-(heptyloxy)phenylamino)thia-zol-4-yl)phenol], the EC50 was under 1000 nM.

For the compound `CCCCCCCCOc1ccc(Nc2nc(-c3ccc(Cl)c(Cl)c3)cs2)cc1` [compound 329, 4-(3,4-ddichlorophenyl)-N-(4-(octyloxy)phenyl)thiazol-2-amine], the EC50 lay within 1000 to 10000 nM.

With `CCCCCOc1ccc(Nc2nc(-c3cc(OC)ccc3OC)cs2)cc1F` [compound 433, N-(3-fluoro-4-(pentyloxy)phenyl)-4-(2,5-dimethoxyphenyl)thiazol-2-amine], the EC50 was under 1000 nM.

Staying with this assay, now noted: Hepatitis C virus, replicon based assay of HCV replication inhibition; Table IV; read-out: Activity.
For `CN(CCOc1ccc(Nc2nc(-c3cccnc3)cs2)cc1C(F)(F)F)c1ccccc1` [compound 802], the EC50 was under 1000 nM.

Consider `CCCCCCCCOc1ccc(Nc2nc(-c3cccnc3)c(Cl)s2)cc1C(F)(F)F` [compound 918, 5-chloro-N-(3-(trifluoromethyl)-4-(octyloxy)phenyl)-4-(pyridin-3-yl)thiazol-2-amine], for which the EC50 was under 1000 nM.

For `c1ccc(CCCOc2ccc(Nc3nc(-c4cccnc4)cs3)cc2)cc1` [compound 920, N-(4-(3-phenylpropoxy)phenyl)-4-(pyridin-3-yl)thiazol-2-amine], the EC50 was under 1000 nM.

Take `CC(C)(C)c1cc(Nc2nc(-c3cccnc3)cs2)cc(C(C)(C)C)c1` [compound 894, N-(3,5-di-tert-butylphenyl)-4-(pyridin-3-yl)thiazol-2-amine]: the EC50 is under 1000 nM.

For `Cc1noc(NS(=O)(=O)c2ccc(Nc3nc(-c4cccnc4)cs3)cc2)c1C` [compound 910], the EC50 is over 10000 nM.

For the compound `N#Cc1ccc(-c2csc(Nc3ccc(OCC4CCCCC4)c(C(F)(F)F)c3)n2)o1` [compound 764, 5-(2-(4-(cyclohexylmethoxy)-3-(trifluoromethyl)phenylamino)thiazol-4-yl)furan-2-carbonitrile], the EC50 was under 1000 nM.

For the compound `CCOC(=O)Cc1ccc(-c2csc(Nc3ccc(OCCCc4ccco4)c(C(F)(F)F)c3)n2)s1` [compound 944, ethyl 2-(5-(2-(4-(3-(furan-2-yl)propoxy)-3-(trifluoromethyl)phenylamino)thiazol-4-yl)thiophen-2-yl) acetate], the EC50 was under 1000 nM.

Turning to `COc1ccc(Nc2nc(-c3cccnc3)cs2)cc1` [compound 886, N-(4-methoxyphenyl)-4-(pyridin-3-yl)thiazol-2-amine], the EC50 was over 10000 nM.

For the compound `CCCCCCCCS(=O)(=O)c1ccc(Nc2nc(-c3cccnc3)cs2)cc1C(F)(F)F` [compound 952, N-(3-(trifluoromethyl)-4-(octylsulfonyl)phenyl)-4-(pyridin-3-yl)thiazol-2-amine], the EC50 was under 1000 nM.

In the case of `CCCCCCCCOc1ccc(Nc2nc(-c3ccc(OC)nn3)cs2)cc1C(F)(F)F` [compound 841, N-(3-(trifluoromethyl)-4-(octyloxy)phenyl)-4-(6-methoxypyridazin-3-yl)thiazol-2-amine], the EC50 is under 1000 nM.

Turning to `Cc1ccc(Oc2ccc(Nc3nc(-c4cccnc4)cs3)cc2)cc1` [compound 897, N-(4-(p-tolyloxy)phenyl)-4-(pyridin-3-yl)thiazol-2-amine], the EC50 was under 1000 nM.

Regarding `COc1ncc(-c2csc(Nc3ccc(N4CCC5CCCCC5C4)c(C(F)(F)F)c3)n2)cn1` (stereo not drawn) [compound 781, N-(3-(trifluoromethyl)-4-(octahydroisoquinolin-2(1H)-yl)phenyl)-4-(2-methoxypyrimidin-5-yl)thiazol-2-amine], the EC50 was under 1000 nM.
